Test results as given in US20250179059A1 (The Regents of the University of California, priority 2021, published 2025).
Blank lines part the entries; values can stand above or below the compound they belong to.

How the values were obtained:
[1] = target: T1, human BRD4 bromodomain II (Homo sapiens, UniProt O60885); assay: Bromodomain binding assay (AlphaScreen), BRD4 BDII; conditions: AlphaScreen assay, Table C2; read-out: BRD4 BDII IC50
T1 construct: human BRD4 bromodomain II [based on Genbank NM_058243, residues 349-460]; host or cells: E. coli
Method in brief: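 Tagged BRD4 BDI or BDII constructs, expressed in E. coli, competed against a K5/K8/K12/K16-acetylated biotin-H4 peptide. Proximity signal between bead pairs after room-temperature incubations gave concentration-response curves, from which IC50 was derived.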

[2] = test system: human SKM-1 acute myeloid leukemia cells; assay: SKM-1 antiproliferation cell-based assay (ATPlite); conditions: Homo sapiens, SKM-1, 96 h, SKM-1 antiproliferation assay, 4 days, Table C2
Method in brief: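 Log-phase cells in RPMI 1640/15% FBS were seeded at 34722 cells/mL and exposed for 4 days to nine-concentration DMSO serial dilutions in triplicate. Viability was read as ATP luminescence (ATPlite 1step), and IC50 values came from variable-slope non-linear regression.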

SMILES: CO[C@H]1COC(=O)N1c1ccc(-c2cc(F)cc(-c3ccnc(N4CCNCC4)c3)c2O)cc1Cl [Example 506, (S)-3-(3-chloro-5′-fluoro-2′-hydroxy-3′-(2-(piperazin-1-yl)pyridin-4-yl)-[1,1′-biphenyl]-4-yl)-4-methoxyoxazolidin-2-one]
- IC50 [1]: 10 to 100 nM
- GI50 [2]: 300 to 3000 nM

SMILES: CO[C@@H]1COC(=O)N1c1ccc(-c2cc(F)cc(-c3ccnc(N4CCNCC4)c3)c2O)cc1Cl [Example 507, (R)-3-(3-chloro-5′-fluoro-2′-hydroxy-3′-(2-(piperazin-1-yl)pyridin-4-yl)-[1,1′-biphenyl]-4-yl)-4-methoxyoxazolidin-2-one]
- IC50 [1]: 10 to 100 nM
- GI50 [2]: 300 to 3000 nM

SMILES: Cn1ccn(-c2ccc(-c3cc(Cl)cc(-c4cncc(N5CC[C@H](N)C5)c4)c3O)cc2Cl)c1=O [Example 510, (S)-1-(3′-(5-(3-aminopyrrolidin-1-yl)pyridin-3-yl)-3,5′-dichloro-2′-hydroxy-[1,1′-biphenyl]-4-yl)-3-methyl-1H-imidazol-2(3H)-one]
- IC50 [1]: 10 to 100 nM
- GI50 [2]: 30 to 300 nM

SMILES: Cn1ccn(-c2ccc(-c3cc(F)cc(-c4ccnc(N5CC6CCC(C5)N6)c4)c3O)cc2Cl)c1=O [Example 511, 1-(3′-(2-(3,8-diazabicyclo[3.2.1]octan-3-yl)pyridin-4-yl)-3-chloro-5′-fluoro-2′-hydroxy-[1,1′-biphenyl]-4-yl)-3-methyl-1H-imidazol-2(3H)-one]
- IC50 [1]: 1 to 10 nM
- GI50 [2]: 0.3 to 30 nM

SMILES: Cn1ccn(-c2ccc(-c3cc(F)cc(-c4cncc(N5CC6CCC(C5)N6)c4)c3O)cc2Cl)c1=O [Example 512, 1-(3′-(5-(3,8-diazabicyclo[3.2.1]octan-3-yl)pyridin-3-yl)-3-chloro-5′-fluoro-2′-hydroxy-[1,1′-biphenyl]-4-yl)-3-methyl-1H-imidazol-2(3H)-one]
- IC50 [1]: 1 to 10 nM
- GI50 [2]: 0.3 to 30 nM

SMILES: CN1C2CCC1CN(c1cc(-c3cc(F)cc(-c4ccc(-n5ccn(C)c5=O)c(Cl)c4)c3O)ccn1)C2 [Example 513, 1-(3-chloro-5′-fluoro-2′-hydroxy-3′-(2-(8-methyl-3,8-diazabicyclo[3.2.1]octan-3-yl)pyridin-4-yl)-[1,1′-biphenyl]-4-yl)-3-methyl-1H-imidazol-2(3H)-one]
- IC50 [1]: 1 to 10 nM
- GI50 [2]: 0.3 to 30 nM

SMILES: CN1C2CCC1CN(c1cncc(-c3cc(F)cc(-c4ccc(-n5ccn(C)c5=O)c(Cl)c4)c3O)c1)C2 [Example 514, 1-(3-chloro-5′-fluoro-2′-hydroxy-3′-(5-(8-methyl-3,8-diazabicyclo[3.2.1]octan-3-yl)pyridin-3-yl)-[1,1′-biphenyl]-4-yl)-3-methyl-1H-imidazol-2(3H)-one]
- IC50 [1]: 1 to 10 nM
- GI50 [2]: 0.3 to 30 nM

SMILES: Cn1nnn(-c2ccc(-c3cc(F)cc(-c4ccnc(N5CCNCC5)c4)c3O)cc2Cl)c1=O [Example 520, 1-(3-chloro-5′-fluoro-2′-hydroxy-3′-(2-(piperazin-1-yl)pyridin-4-yl)-[1,1′-biphenyl]-4-yl)-^4-methyl-1H-tetrazol-5(4H)-one]
- IC50 [1]: 10 to 100 nM
- GI50 [2]: 300 to 3000 nM

SMILES: C[C@@H]1CN(c2cc(-c3cc(F)cc(-c4ccc(-n5ccn(C)c5=O)c(Cl)c4)c3O)cc3[nH]cnc23)CCN1 [Example 522, (R)-1-(3-chloro-5′-fluoro-2′-hydroxy-3′-(4-(3-methylpiperazin-1-yl)-1H-benzo[d]imidazol-6-yl)-[1,1′-biphenyl]-4-yl)-3-methyl-1H-imidazol-2(3H)-one]
- IC50 [1]: 1 to 10 nM
- GI50 [2]: 0.3 to 30 nM

SMILES: CCC(=O)Nc1cc(-c2cc(F)cc(-c3ccc(-n4ccn(C)c4=O)c(Cl)c3)c2O)cc(N2CC[C@H](N)C2)n1 [Example 523, (S)-N-(6-(3-aminopyrrolidin-1-yl)-4-(3′-chloro-5-fluoro-2-hydroxy-4′-(3-methyl-2-oxo-2,3-dihydro-1H-imidazol-1-yl)-[1,1′-biphenyl]-3-yl)pyridin-2-yl)propionamide]
- IC50 [1]: 1 to 10 nM
- GI50 [2]: 0.3 to 30 nM

SMILES: CC(C)C(=O)Nc1cc(-c2cc(F)cc(-c3ccc(-n4ccn(C)c4=O)c(Cl)c3)c2O)cc(N2CC[C@H](N)C2)n1 [Example 524, (S)-N-(6-(3-aminopyrrolidin-1-yl)-4-(3′-chloro-5-fluoro-2-hydroxy-4′-(3-methyl-2-oxo-2,3-dihydro-1H-imidazol-1-yl)-[1,1′-biphenyl]-3-yl)pyridin-2-yl)isobutyramide]
- IC50 [1]: 1 to 10 nM
- GI50 [2]: 0.3 to 30 nM

SMILES: Cn1ccn(-c2ccc(-c3cc(F)cc(-c4cc(NC(=O)C5CC5)nc(N5CC[C@H](N)C5)c4)c3O)cc2Cl)c1=O [Example 525, (S)-N-(6-(3-aminopyrrolidin-1-yl)-4-(3′-chloro-5-fluoro-2-hydroxy-4′-(3-methyl-2-oxo-2,3-dihydro-1H-imidazol-1-yl)-[1,1′-biphenyl]-3-yl)pyridin-2-yl)cyclopropanecarboxamide]
- IC50 [1]: 1 to 10 nM
- GI50 [2]: 0.3 to 30 nM

SMILES: Cn1ccn(-c2ccc(-c3cc(F)cc(-c4cc(N5CCNCC5)c5cn[nH]c5c4)c3O)cc2Cl)c1=O [Example 526, 1-(3-chloro-5′-fluoro-2′-hydroxy-3′-(4-(piperazin-1-yl)-1H-indazol-6-yl)-[1,1′-biphenyl]-4-yl)-3-methyl-1H-imidazol-2(3H)-one]
- IC50 [1]: 1 to 10 nM
- GI50 [2]: 0.3 to 30 nM

SMILES: Cn1ccn(-c2ccc(-c3cc(F)cc(-c4ccnc(N5CCN(C6COC6)CC5)c4)c3O)cc2Cl)c1=O [Example 528, 1-(3-chloro-5′-fluoro-2′-hydroxy-3′-(2-(4-(oxetan-3-yl)piperazin-1-yl)pyridin-4-yl)-[1,1′-biphenyl]-4-yl)-3-methyl-1H-imidazol-2(3H)-one]
- IC50 [1]: 1 to 10 nM
- GI50 [2]: 0.3 to 30 nM

SMILES: C[C@@H]1CN(c2cncc(-c3cc(Cl)cc(-c4ccc(-n5ccn(C)c5=O)c(Cl)c4)c3O)c2)CCN1 [Example 529, (R)-1-(3,5′-dichloro-2′-hydroxy-3′-(5-(3-methylpiperazin-1-yl)pyridin-3-yl)-[1,1′-biphenyl]-4-yl)-3-methyl-1H-imidazol-2(3H)-one]
- IC50 [1]: 1 to 10 nM
- GI50 [2]: 0.3 to 30 nM

More lines, now with the values ahead:

- IC50 [1]: 1 to 10 nM
- GI50 [2]: 0.3 to 30 nM
SMILES: Cc1cc(-c2cncc(N3CCN[C@H](C)C3)c2)c(O)c(-c2ccc(-n3ccn(C)c3=O)c(Cl)c2)c1 [Example 508, (R)-1-(3-chloro-2′-hydroxy-5′-methyl-3′-(5-(3-methylpiperazin-1-yl)pyridin-3-yl)-[1,1′-biphenyl]-4-yl)-3-methyl-1H-imidazol-2(3H)-one]

- IC50 [1]: 1 to 10 nM
- GI50 [2]: 0.3 to 30 nM
SMILES: Cc1cc(-c2cncc(N3CC[C@H](N)C3)c2)c(O)c(-c2ccc(-n3ccn(C)c3=O)c(Cl)c2)c1 [Example 509, (S)-1-(3′-(5-(3-aminopyrrolidin-1-yl)pyridin-3-yl)-3-chloro-2′-hydroxy-5′-methyl-[1,1′-biphenyl]-4-yl)-3-methyl-1H-imidazol-2(3H)-one]

- IC50 [1]: 1 to 10 nM
- GI50 [2]: 0.3 to 30 nM
SMILES: CC(=O)Nc1cc(-c2cc(F)cc(-c3ccc(-n4ccn(C)c4=O)c(Cl)c3)c2O)cc(N2CC[C@H](N(C)C)C2)n1 [Example 515, (S)-N-(4-(3′-chloro-5-fluoro-2-hydroxy-4′-(3-methyl-2-oxo-2,3-dihydro-1H-imidazol-1-yl)-[1,1′-biphenyl]-3-yl)-6-(3-(dimethylamino)pyrrolidin-1-yl)pyridin-2-yl)acetamide]

- IC50 [1]: 1 to 10 nM
- GI50 [2]: 0.3 to 30 nM
SMILES: CNC1CCN(c2cncc(-c3cc(F)cc(-c4ccc(-n5ccn(C)c5=O)c(Cl)c4)c3O)c2)CC1 [Example 516, 1-(3-chloro-5′-fluoro-2′-hydroxy-3′-(5-(4-(methylamino)piperidin-1-yl)pyridin-3-yl)-[1,1′-biphenyl]-4-yl)-3-methyl-1H-imidazol-2(3H)-one]

- IC50 [1]: 0.01 to 1 nM
- GI50 [2]: 0.3 to 30 nM
SMILES: Cc1cc(-c2cc(F)cc(-c3ccc(-n4ccn(C)c4=O)c(Cl)c3)c2O)cc(N2CC[C@H](N)C2)n1 [Example 517, (S)-1-(3′-(2-(3-aminopyrrolidin-1-yl)-6-methylpyridin-4-yl)-3-chloro-5′-fluoro-2′-hydroxy-[1,1′-biphenyl]-4-yl)-3-methyl-1H-imidazol-2(3H)-one]

- IC50 [1]: 0.01 to 1 nM
- GI50 [2]: 0.3 to 30 nM
SMILES: Cc1cc(-c2cc(C)nc(N3CC[C@H](N)C3)c2)c(O)c(-c2ccc(-n3ccn(C)c3=O)c(Cl)c2)c1 [Example 518, (S)-1-(3′-(2-(3-aminopyrrolidin-1-yl)-6-methylpyridin-4-yl)-3-chloro-2′-hydroxy-5′-methyl-[1,1′-biphenyl]-4-yl)-3-methyl-1H-imidazol-2(3H)-one]

- IC50 [1]: 1 to 10 nM
- GI50 [2]: 0.3 to 30 nM
SMILES: CN[C@H]1CCN(c2cc(-c3cc(F)cc(-c4ccc(-n5ccn(C)c5=O)c(Cl)c4)c3O)cc(NC(C)=O)n2)C1 [Example 519, (S)-N-(4-(3′-chloro-5-fluoro-2-hydroxy-4′-(3-methyl-2-oxo-2,3-dihydro-1H-imidazol-1-yl)-[1,1′-biphenyl]-3-yl)-6-(3-(methylamino)pyrrolidin-1-yl)pyridin-2-yl)acetamide]

- IC50 [1]: 1 to 10 nM
- GI50 [2]: 30 to 300 nM
SMILES: Cn1ccn(-c2ccc(-c3cc(F)cc(-c4ccnc(N5CCN(CC(=O)O)CC5)c4)c3O)cc2Cl)c1=O [Example 521, 2-(4-(4-(3′-chloro-5-fluoro-2-hydroxy-4′-(3-methyl-2-oxo-2,3-dihydro-1H-imidazol-1-yl)-[1,1′-biphenyl]-3-yl)pyridin-2-yl)piperazin-1-yl)acetic acid]

- IC50 [1]: 0.01 to 1 nM
- GI50 [2]: 0.3 to 30 nM
SMILES: Cn1ccn(-c2ccc(-c3cc(F)cc(-c4ccnc(N5CCN(CCCF)CC5)c4)c3O)cc2Cl)c1=O [Example 527, 1-(3-chloro-5′-fluoro-3′-(2-(4-(3-fluoropropyl)piperazin-1-yl)pyridin-4-yl)-2′-hydroxy-[1,1′-biphenyl]-4-yl)-3-methyl-1H-imidazol-2(3H)-one]
